Results taken from publication PMC4493701, “Quantitative and qualitative analysis of the novel antitumor 1,3,4-oxadiazole derivative (GLB) and its metabolites using HPLC-UV and UPLC-QTOF-MS” (Scientific Reports, 2015).

What was measured:
[1] = Stability of GLB in rat plasma QC samples under storage and processing conditions (HPLC-UV); type: in vitro ADME; conditions: for Measured concentration / Accuracy (RE, %): rat plasma
Method: The stability of GLB in rat plasma was determined by analyzing QC samples that was stored in different conditions, including: 1) room-temperature, 2) light irradiation for 24 hours, 3) post-preparation (the extracted samples stored at 4 °C for 48 hours and one week), 4) three cycles of freeze and thaw (freezing at −20 °C for 24 hours and thawing at room temperature), 5) long-term stored in −20 °C for up to 2 weeks, 1 month and 3 months, respectively. All the QC samples for stability assessment were analyzed in triplicate.
Under manifold storage and processing conditions, the stability of GLB in rat plasma was evaluated by analyzing three replicates for QC samples at 0.025, 0.5 and 4 μg/mL.
Calibration standard solutions were prepared by adding 25 μL of working standard solutions of GLB and IS into 375 μL blank rat plasma to achieve final concentrations of GLB of 0.01, 0.025, 0.05, 0.1, 0.5, 1, 4 and 8 μg/mL, and IS concentration of 1 μg/mL, respectively. QC samples were prepared in the same way using the low, medium and high concentrations of 0.025, 0.5 and 4 μg/mL, respectively.

[2] = Identification of GLB metabolites in rat plasma by UPLC-ESI-QTOF-MS; type: in vivo; conditions: rat plasma after oral GLB 100 mg/kg; tentative, no metabolite standards
Text: Because of two unknown chromatographic peaks were detected by HPLC after oral dose GLB in rat plasma, their structures were further identified and the metabolic pathways were investigated using UPLC-MS method. […] Based on the chromatographic retention times and mass spectral patterns (m/z and mass errors) between the parent drug and their product ions, the structures of metabolites of GLB could be estimated, in spite of lacking standards of metabolites. […] Metabolites M1 and M2 were detected at shorter retention times (2.56 and 2.86 min, respectively), and heavier molecular ions as m/z 529 (497 + 32 Da) and 513 (497 + 16 Da), respectively.
Furthermore, under the tandem mass spectrometry positive scan mode condition, the parent compound GLB was detected as protonated molecular ions at m/z 499 ([M+H]+) and sodium adduct (520, [M+Na]+), and fragment ion m/z 441, respectively (Fig. 3C). The metabolite M1 was detected as protonated molecular ions at m/z 529 ([M+H]+) and sodium adduct (m/z […], [M+Na]+), and fragment ions m/z 457, 449, 435 and 401, respectively. […]
The structure identifications of GLB and its metabolites were analyzed using a validated ultra-performance liquid chromatography- electrospray ionization-quadrupole-time-of-flight mass spectrometry (UPLC-ESI-QTOF-MS) method, as described in previous publications. […]

[3] = Freezing storage −20 °C for 1 month, actual concentration 0.025 μg/mL
[4] = Freezing storage −20 °C for 2 weeks, actual concentration 0.025 μg/mL
[5] = Freezing storage −20 °C for 2 weeks, actual concentration 0.5 μg/mL
[6] = Freezing storage −20 °C for 2 weeks, actual concentration 4 μg/mL
[7] = Light and room temperature for 24 hours, actual concentration 0.025 μg/mL
[8] = Light and room temperature for 24 hours, actual concentration 0.5 μg/mL
[9] = Light and room temperature for 24 hours, actual concentration 4 μg/mL
[10] = Post-preparative, 4 °C for 1 week, actual concentration 0.025 μg/mL
[11] = Post-preparative, 4 °C for 1 week, actual concentration 0.5 μg/mL
[12] = Post-preparative, 4 °C for 1 week, actual concentration 4 μg/mL
[13] = Post-preparative, 4 °C for 48 hours, actual concentration 0.025 μg/mL
[14] = Post-preparative, 4 °C for 48 hours, actual concentration 0.5 μg/mL
[15] = Post-preparative, 4 °C for 48 hours, actual concentration 4 μg/mL

CC(=O)N1N=C(c2ccc(Br)cc2)OC12C1OC(C)(C)OC1COC21COC(C)(C)O1 (stereo not drawn) [GLB, Fructose-based 3-acetyl-2,3-dihydro-1,3,4-oxadiazole]
Stability in rat plasma ([1]; 24 hours, 48 hours and 1 week at 4 °C, 2 weeks, 1 month and 3 months at −20 °C, three freeze-thaw cycles): stable
Measured concentration ([1]; Freeze-thawing 3 cycles (−20 °C), actual concentration 0.025 μg/mL): 0.025 ± 0.001 µg/mL
Measured concentration ([1]; Freeze-thawing 3 cycles (−20 °C), actual concentration 0.5 μg/mL): 0.467 ± 0.036 µg/mL
Measured concentration ([1]; Freeze-thawing 3 cycles (−20 °C), actual concentration 4 μg/mL): 3.732 ± 0.227 µg/mL
Accuracy (RE, %) [1, 3]: 8.66%
Measured concentration [1, 3]: 0.027 ± 0.002 µg/mL
Measured concentration ([1]; Freezing storage −20 °C for 1 month, actual concentration 0.5 μg/mL): 0.490 ± 0.015 µg/mL
Measured concentration ([1]; Freezing storage −20 °C for 1 month, actual concentration 4 μg/mL): 4.097 ± 0.213 µg/mL
Accuracy (RE, %) [1, 4]: 8.17%
Measured concentration [1, 4]: 0.027 ± 0.001 µg/mL
Accuracy (RE, %) [1, 5]: 7.10%
Measured concentration [1, 5]: 0.535 ± 0.009 µg/mL
Accuracy (RE, %) [1, 6]: 9.84%
Measured concentration [1, 6]: 4.393 ± 0.090 µg/mL
Measured concentration ([1]; Freezing storage −20 °C for 3 months, actual concentration 0.025 μg/mL): 0.023 ± 0.002 µg/mL
Measured concentration ([1]; Freezing storage −20 °C for 3 months, actual concentration 0.5 μg/mL): 0.487 ± 0.003 µg/mL
Measured concentration ([1]; Freezing storage −20 °C for 3 months, actual concentration 4 μg/mL): 3.918 ± 0.063 µg/mL
Accuracy (RE, %) [1, 7]: 4.17%
Measured concentration [1, 7]: 0.026 ± 0.002 µg/mL
Accuracy (RE, %) [1, 8]: −2.79%
Measured concentration [1, 8]: 0.486 ± 0.027 µg/mL
Accuracy (RE, %) [1, 9]: −1.94%
Measured concentration [1, 9]: 3.922 ± 0.055 µg/mL
Accuracy (RE, %) [1, 10]: 3.83%
Measured concentration [1, 10]: 0.026 ± 0.001 µg/mL
Accuracy (RE, %) [1, 11]: −14.4%
Measured concentration [1, 11]: 0.428 ± 0.010 µg/mL
Accuracy (RE, %) [1, 12]: −8.30%
Measured concentration [1, 12]: 3.668 ± 0.219 µg/mL
Accuracy (RE, %) [1, 13]: 5.31%
Measured concentration [1, 13]: 0.026 ± 0.001 µg/mL
Accuracy (RE, %) [1, 14]: 5.62%
Measured concentration [1, 14]: 0.528 ± 0.007 µg/mL
Accuracy (RE, %) [1, 15]: 5.83%
Measured concentration [1, 15]: 4.233 ± 0.196 µg/mL

CC(=O)N1N=C(c2ccc(Br)cc2)OC1(C1OC(C)(C)OC1C(=O)O)C1(O)COC(C)(C)O1 (stereo not drawn) [M1]
Identification (metabolic modification of GLB) [2]: Di-hydroxylation
